From US20250353898A1, “SERPIN PEPTIDE DERIVATIVES AND METHODS OF USING THE SAME” (priority 2022, published 2025)
Entries after “also recorded” stand apart in the source; their conditions may differ. Positions of bridges follow the written chain, without caps; N, C: chain ends. Non-standard residues stand in square brackets, D forms with d. No end group written: not given here. Nle = CCCC[C@H](N)C(=O)O; dDap = NC[C@@H](N)C(=O)O; Dap = NC[C@H](N)C(=O)O; Nal = naphthylalanine

Tests used:
[1] = tested on: NFκB reporter cells or IMG microglial cells; assay: Cytotoxicity assay (CellTiter-Glo Luminescent Cell Viability Assay); settings: up to 12.5 μg/ml, 24 hours, NFκB reporter cells and IMG microglial cells, FIG. 11
Protocol: IMG cells were treated with peptide derivatives at concentrations at or exceeding those tested for the activity assays (FIGS. 5-7) for 24 hours.

[2] = tested on: NFκB; assay: NFκB reporter assay (SEAP) in THP1-XBlue-MD2-CD14 cells after LPS; type: cell-based; settings: for NFκB inhibition activity: 50 μg/ml, LPS 5 ng/ml overnight, compared to SP163M (and SP22); for activity in reducing NFκB activation: LPS 5 ng/ml 24 hours; for EC50 NFκB: NFκB reporter cells, LPS 5 ng/ml
Protocol: The NFκB inducible Secreted Embryonic Alkaline Phosphatase (SEAP) was measured in the supernatant and read for absorbance.
(§1) Various SERPIN peptide derivatives were screened in vitro for their ability to reduce TNFα and NFκB secretion via LRP-1 activation. The NFκB reporter cells (THP1-XBlue-MD2-CD14 cells) were treated with each peptide derivative at various concentrations, up to 100 μg/ml before being insulted with LPS (5 ng/ml) and incubated overnight. The NFκB inducible Secreted Embryonic Alkaline Phosphatase (SEAP) was measured in the supernatant and read for absorbance. IMG Microglial cells were treated with each peptide derivative at various concentrations, up to 100 μg/ml before LPS (100 ng/ml) stimulation for 24 hours. An ELISA was used to measure TNFα in the supernatant ([…]).

[3] = tested on: IL-6; assay: IL-6 secretion in IMG microglial cells after LPS (ELISA); type: cell-based; settings: for EC50 IL-6: IMG microglial cells, LPS 100 ng/ml, 24 hours
[4] = tested on: TNFα; assay: TNFα secretion in IMG microglial cells after LPS (ELISA); type: cell-based; settings: for activity in reducing TNFα: FIG. 6A/7, up to 50 μg/mL, versus SP163M, SA7; for activity in reducing TNFα / activity in reducing TNFα activation: LPS 100 ng/ml 24 hours; for EC50 TNFα: IMG microglial cells, LPS 100 ng/ml, 24 hours; for activity in reducing TNFα activation: A1-A15 screen, 50 or 100 μg/ml, FIG. 5
Protocol: In the NFκB reporter cells, the NFκB inducible Secreted Embryonic Alkaline Phosphatase (SEAP) was measured in the supernatant. TNFα secretion in the supernatant was measured via ELISA.
as §1

[5] = tested on: OVA induced allergic asthma; assay: OVA induced allergic asthma mouse model, lung homogenate; type: in vivo, mice
Text: Infiltration of immune cells into the lung likely account for the increase in total protein levels in the lung.

[6] = biological target: low-density lipoprotein receptor related protein-1 (LRP-1) on IMG microglial cells (UniProt Q91ZX7 20-4545, limits assumed); assay: cell-based or functional assay
[7] = biological target: low-density lipoprotein receptor related protein-1 (LRP-1) on THP1-XBlue-MD2-CD14 NFκB reporter cells (UniProt Q07954 20-4544); assay: cell-based or functional assay
Sequence of low-density lipoprotein receptor related protein-1 (LRP-1) on THP1-XBlue-MD2-CD14 NFκB reporter cells (Q07954 20-4544 limits assumed): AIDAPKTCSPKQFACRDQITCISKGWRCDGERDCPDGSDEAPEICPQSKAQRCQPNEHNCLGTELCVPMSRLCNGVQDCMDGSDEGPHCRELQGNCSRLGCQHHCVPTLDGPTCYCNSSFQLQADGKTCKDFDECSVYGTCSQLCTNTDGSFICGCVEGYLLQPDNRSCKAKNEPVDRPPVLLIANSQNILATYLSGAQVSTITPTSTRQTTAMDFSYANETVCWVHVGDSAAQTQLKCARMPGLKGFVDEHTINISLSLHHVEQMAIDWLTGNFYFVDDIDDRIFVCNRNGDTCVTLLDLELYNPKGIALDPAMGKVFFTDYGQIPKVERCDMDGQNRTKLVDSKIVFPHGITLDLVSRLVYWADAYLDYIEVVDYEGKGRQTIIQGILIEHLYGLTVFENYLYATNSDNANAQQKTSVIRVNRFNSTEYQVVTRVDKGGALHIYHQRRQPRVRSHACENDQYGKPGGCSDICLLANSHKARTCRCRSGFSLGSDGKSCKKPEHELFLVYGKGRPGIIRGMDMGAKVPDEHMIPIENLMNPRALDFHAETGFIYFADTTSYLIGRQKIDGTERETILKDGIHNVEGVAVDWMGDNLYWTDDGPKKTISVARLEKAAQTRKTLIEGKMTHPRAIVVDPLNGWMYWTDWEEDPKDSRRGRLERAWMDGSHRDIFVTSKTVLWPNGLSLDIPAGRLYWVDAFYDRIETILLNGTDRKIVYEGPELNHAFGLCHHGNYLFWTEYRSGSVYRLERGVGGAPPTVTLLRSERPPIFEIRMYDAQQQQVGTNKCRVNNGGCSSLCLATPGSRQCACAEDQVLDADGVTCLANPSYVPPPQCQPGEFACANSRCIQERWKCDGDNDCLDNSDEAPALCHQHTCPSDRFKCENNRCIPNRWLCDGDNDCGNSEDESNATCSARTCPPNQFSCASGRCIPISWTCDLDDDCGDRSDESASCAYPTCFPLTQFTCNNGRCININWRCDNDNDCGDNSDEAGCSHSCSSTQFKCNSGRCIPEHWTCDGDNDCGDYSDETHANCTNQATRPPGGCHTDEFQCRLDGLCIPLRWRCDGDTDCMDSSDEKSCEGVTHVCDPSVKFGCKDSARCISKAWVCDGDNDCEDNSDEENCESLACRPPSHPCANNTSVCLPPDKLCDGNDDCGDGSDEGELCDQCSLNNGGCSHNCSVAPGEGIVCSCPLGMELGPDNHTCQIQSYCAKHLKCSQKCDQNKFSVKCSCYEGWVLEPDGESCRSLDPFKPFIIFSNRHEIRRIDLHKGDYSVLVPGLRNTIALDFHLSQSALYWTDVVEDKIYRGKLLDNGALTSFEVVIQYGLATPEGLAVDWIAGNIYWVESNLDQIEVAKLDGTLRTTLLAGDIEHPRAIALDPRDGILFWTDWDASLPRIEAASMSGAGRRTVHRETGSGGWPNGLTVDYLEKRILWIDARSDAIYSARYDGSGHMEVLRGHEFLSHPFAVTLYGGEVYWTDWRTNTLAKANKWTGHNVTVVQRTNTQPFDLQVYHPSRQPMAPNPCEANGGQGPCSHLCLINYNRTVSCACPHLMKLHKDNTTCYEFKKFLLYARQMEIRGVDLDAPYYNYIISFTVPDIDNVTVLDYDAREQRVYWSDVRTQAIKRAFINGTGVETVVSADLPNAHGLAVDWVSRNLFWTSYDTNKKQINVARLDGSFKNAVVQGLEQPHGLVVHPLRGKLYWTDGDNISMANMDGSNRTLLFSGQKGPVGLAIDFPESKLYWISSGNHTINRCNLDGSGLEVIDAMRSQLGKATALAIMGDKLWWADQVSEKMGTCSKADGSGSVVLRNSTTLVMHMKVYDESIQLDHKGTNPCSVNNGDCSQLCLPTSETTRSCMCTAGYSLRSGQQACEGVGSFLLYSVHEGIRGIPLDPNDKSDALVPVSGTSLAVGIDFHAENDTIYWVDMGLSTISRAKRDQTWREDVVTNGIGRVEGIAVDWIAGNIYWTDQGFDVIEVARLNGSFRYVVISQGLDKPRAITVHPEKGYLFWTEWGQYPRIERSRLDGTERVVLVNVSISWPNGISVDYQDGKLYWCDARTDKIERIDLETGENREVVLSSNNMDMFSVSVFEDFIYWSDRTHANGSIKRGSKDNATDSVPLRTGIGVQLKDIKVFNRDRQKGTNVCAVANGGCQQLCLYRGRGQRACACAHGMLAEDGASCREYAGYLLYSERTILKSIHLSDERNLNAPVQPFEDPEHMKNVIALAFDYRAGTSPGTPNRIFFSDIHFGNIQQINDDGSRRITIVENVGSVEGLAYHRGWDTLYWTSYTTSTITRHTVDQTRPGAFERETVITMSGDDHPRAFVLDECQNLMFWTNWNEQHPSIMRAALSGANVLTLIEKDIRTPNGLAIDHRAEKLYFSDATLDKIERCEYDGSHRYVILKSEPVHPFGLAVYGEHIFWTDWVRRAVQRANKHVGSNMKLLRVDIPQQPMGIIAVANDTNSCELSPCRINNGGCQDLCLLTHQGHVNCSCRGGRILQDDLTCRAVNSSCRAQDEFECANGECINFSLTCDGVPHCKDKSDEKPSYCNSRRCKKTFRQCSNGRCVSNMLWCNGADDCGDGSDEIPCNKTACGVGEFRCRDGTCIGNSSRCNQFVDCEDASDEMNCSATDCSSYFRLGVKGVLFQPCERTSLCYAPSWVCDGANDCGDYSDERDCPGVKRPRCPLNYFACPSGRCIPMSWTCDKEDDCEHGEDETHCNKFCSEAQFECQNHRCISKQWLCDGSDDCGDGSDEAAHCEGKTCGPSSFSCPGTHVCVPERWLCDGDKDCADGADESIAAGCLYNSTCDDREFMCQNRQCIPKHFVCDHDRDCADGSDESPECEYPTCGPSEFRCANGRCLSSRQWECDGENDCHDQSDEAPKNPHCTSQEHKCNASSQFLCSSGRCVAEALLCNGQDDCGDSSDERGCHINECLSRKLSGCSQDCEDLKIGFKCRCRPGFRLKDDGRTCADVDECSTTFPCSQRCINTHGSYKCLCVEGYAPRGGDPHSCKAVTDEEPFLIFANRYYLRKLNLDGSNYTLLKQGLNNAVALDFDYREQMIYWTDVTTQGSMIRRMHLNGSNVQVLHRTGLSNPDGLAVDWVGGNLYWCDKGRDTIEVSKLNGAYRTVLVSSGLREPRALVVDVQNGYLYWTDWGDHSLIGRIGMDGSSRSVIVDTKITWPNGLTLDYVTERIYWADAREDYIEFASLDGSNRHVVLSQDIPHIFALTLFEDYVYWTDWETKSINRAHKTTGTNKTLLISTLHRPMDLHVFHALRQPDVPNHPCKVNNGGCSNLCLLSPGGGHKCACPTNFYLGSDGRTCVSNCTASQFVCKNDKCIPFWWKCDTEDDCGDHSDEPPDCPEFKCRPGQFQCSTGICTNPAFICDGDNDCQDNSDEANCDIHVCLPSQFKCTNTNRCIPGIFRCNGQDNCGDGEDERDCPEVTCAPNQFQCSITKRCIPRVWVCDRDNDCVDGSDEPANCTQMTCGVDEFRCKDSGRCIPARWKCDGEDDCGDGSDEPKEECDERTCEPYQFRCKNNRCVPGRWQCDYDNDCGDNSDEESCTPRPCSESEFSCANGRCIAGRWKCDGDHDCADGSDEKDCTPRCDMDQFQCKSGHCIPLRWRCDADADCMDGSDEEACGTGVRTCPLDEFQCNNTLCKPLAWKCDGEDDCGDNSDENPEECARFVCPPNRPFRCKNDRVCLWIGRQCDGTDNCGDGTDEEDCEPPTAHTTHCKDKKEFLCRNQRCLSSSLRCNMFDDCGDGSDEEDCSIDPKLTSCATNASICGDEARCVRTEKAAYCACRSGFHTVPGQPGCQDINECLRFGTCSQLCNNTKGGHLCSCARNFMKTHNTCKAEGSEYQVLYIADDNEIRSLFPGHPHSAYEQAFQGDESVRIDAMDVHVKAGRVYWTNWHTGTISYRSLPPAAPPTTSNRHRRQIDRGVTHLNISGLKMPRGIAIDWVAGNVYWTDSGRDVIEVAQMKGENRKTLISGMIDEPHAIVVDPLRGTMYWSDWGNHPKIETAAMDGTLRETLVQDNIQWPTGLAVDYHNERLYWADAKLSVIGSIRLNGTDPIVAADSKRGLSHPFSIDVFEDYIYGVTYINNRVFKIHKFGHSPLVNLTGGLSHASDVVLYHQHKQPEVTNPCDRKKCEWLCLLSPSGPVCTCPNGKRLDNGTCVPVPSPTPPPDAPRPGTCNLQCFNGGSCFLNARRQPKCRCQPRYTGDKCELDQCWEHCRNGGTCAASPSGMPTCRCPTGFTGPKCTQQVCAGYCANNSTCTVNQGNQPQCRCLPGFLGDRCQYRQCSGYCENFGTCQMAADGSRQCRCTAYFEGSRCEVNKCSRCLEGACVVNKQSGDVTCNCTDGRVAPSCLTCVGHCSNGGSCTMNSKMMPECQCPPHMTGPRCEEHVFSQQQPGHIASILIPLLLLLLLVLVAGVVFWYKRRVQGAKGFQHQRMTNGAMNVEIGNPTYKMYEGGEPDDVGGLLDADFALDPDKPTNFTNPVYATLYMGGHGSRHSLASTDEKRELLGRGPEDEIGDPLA

[8] = biological target: serine protease TMPRSS2 (UniProt O15393 1-492, limits assumed); assay: cell-based or functional assay
Sequence of serine protease TMPRSS2 (O15393 whole entry): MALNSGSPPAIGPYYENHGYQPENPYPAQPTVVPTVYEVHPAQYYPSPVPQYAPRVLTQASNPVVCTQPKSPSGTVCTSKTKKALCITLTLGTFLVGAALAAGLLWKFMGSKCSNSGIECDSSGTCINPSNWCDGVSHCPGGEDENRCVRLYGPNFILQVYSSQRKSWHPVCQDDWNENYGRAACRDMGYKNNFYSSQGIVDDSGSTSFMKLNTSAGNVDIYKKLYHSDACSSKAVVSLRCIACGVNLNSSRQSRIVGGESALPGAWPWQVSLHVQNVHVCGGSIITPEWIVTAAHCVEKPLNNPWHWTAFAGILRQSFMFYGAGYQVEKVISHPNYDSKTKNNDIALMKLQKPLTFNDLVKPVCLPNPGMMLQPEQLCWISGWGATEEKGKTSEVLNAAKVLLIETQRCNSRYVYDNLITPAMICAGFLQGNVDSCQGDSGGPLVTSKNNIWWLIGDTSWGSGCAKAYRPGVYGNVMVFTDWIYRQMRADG

[9] = FIG. 6B/7, up to 50 μg/mL, versus SP163M, SA7

Molecule: HN- RRRFT[Nal]L[dS]D (cyclic) [Peptide A3-15]
- cytotoxic effects [1]: no cytotoxic effects

Molecule: Ac-EEEVKFNKPFVFL[Nle]EEE [SA5]
- NFκB inhibition activity [2]: minimal NFκB inhibition activity

Molecule: HN- [rK]RRFT[Nal]]LD (cyclic) ([rK]RRFT[Nal]LD; lactam 1-8) [Peptide A3-2]
- cytotoxic effects [1]: no cytotoxic effects

Molecule: Ac-RRRCPFVFL[Nle]CRRR (cysteine pairing not given here) [SA6]
- NFκB inhibition activity [2]: improved activity in NFκB inhibition

Molecule: Ac- RRR[Dap]FT[Nal]L[Nle]D (cyclic) [Peptide A2-1]
- EC50 IL-6 [3]: 9.644 µg/mL
- activity in reducing NFκB activation [2, 9]: superior activities
- EC50 NFκB [2]: 5.77 µg/mL
- activity in reducing TNFα [4]: superior activities in reducing TNFα
- EC50 TNFα [4]: 12.99 µg/mL

Molecule: HN-RRRFVFLD (cyclic) (not fully specified; cyclised or stapled) [Peptide A2-4]
- activity in reducing NFκB activation [2, 9]: superior activities
- activity in reducing TNFα [4]: superior activities in reducing TNFα

Molecule: Ac- RRRCFV[Nal]L[Nle]C (cyclic) [Peptide A5]
- activity in reducing TNFα activation [4]: improved activities in reducing TNFα activation

Molecule: Ac-RRRDFVFL[Nle][Dap] (also: cyclic (positions not given here)) [Peptide A10]
- activity in reducing TNFα activation [4]: improved activities in reducing TNFα activation

Molecule: HN-RRRFVFL[Nle]D (cyclic) [Peptide A15]
- EC50 IL-6 [3]: 32.39 µg/mL
- EC50 NFκB [2]: 5.053 µg/mL
- activity in reducing TNFα activation [4]: improved activities in reducing TNFα activation
- EC50 TNFα [4]: 36.75 µg/mL

Molecule: Ac-RRRCFTFL[Nle]C (also: cyclic (positions not given here)) [Peptide A8]
- activity in reducing TNFα activation [4]: improved activities in reducing TNFα activation

Molecule: Ac-KKKPFVFL[Nle]KKK [SA4]
- NFκB inhibition activity [2]: minimal NFκB inhibition activity

Molecule: Ac-RRRPFVFL[Nle]RRR [SA3]
- NFκB inhibition activity [2]: improved activity in NFκB inhibition; also recorded: more effective in reducing NFκB activation

Molecule: HN- RRRAT[Nal]L[NIe]D (cyclic) [Peptide A3-14]
- activity in reducing IL-6 secretion ([3]; FIG. 10, up to 12.5 μg/ml, LPS 100 ng/ml 24 hours): superior activities in reducing IL-6 secretion
- EC50 IL-6 [3]: 0.605 µg/mL
- cytotoxic effects [1]: no cytotoxic effects
- activity in reducing NFκB activation ([2]; FIG. 9, 1.56 to 12.5 μg/ml): superior activities in reducing NFκB activation
- EC50 NFκB [2]: 3.775 µg/mL
- EC50 TNFα [4]: 6 µg/mL

Molecule: HN- RRRFVFL[dDap]D (cyclic) (not fully specified (bridges); printed as HN- RRRFVFL[dDap]D (cyclic); also: cyclic, ring not given here) [Peptide A3-10]
- activity in reducing NFκB activation ([2]; FIG. 9, 1.56 to 12.5 μg/ml): superior activities in reducing NFκB activation

Molecule: HN- RRRFT[Nal]]LD (cyclic) (cyclo(RRRFT[Nal]LD)) [Peptide A3-1]
- cytotoxic effects [1]: no cytotoxic effects

Molecule: HN- RRRFTWL[dS]D (cyclic) (not fully specified (bridges); printed as HN- RRRFTWL[dS]D (cyclic); also: cyclic, mode of cyclisation not given here) [Peptide A3-16]
- cytotoxic effects [1]: no cytotoxic effects

Molecule: HN-RRRFT[Nal]L[Nle]D (cyclic) [Peptide A2-2]
- activity in reducing NFκB activation [2, 9]: superior activities
- activity in reducing TNFα [4]: superior activities in reducing TNFα

Molecule: Ac-HHHPFVFL[Nle]HHH [SA2]
- NFκB inhibition activity [2]: minimal NFκB inhibition activity

Molecule: Ac-HHHPFVFLMHHH [SA1]
- NFκB inhibition activity [2]: minimal NFκB inhibition activity

Molecule: HN-RRRFVFL[dS]D (cyclic) (RRRFVFLSD; not fully specified; D-residues; cyclised or stapled) [Peptide A2-5]
- activity in reducing NFκB activation [2, 9]: superior activities
- activity in reducing TNFα [4]: superior activities in reducing TNFα
- TSLP level in lung homogenate ([5]; compared to ova-induced vehicle treated mice, p=0.026): significantly lower levels of TSLP
- total protein levels in the lung ([5]; compared to vehicle treated animals, p<0.005): significantly decreased
- TH-2 mediated cytokines IL-5, IL-4 and IL-13 in lung tissue ([5]; compared with vehicle treated mice): reduction of TH-2 mediated cytokines IL-5, IL-4 and IL-13

B1: SERPIN peptide derivative A15, HN-RRRFVFL[Nle]D (cyclic) (peptide)
peptide: RRRFVFLXD
modifications: not fully specified; Nle (norleucine) at position 8; cyclic: head-to-tail linker between the amino group of the N-terminal Arg and the side-chain carboxylic acid of the C-terminal Asp, ring closing length 12 C-C bonds
- EC50, IL-6 (IMG microglial cells, LPS, ELISA) [6]: 32.4 µg/mL
- EC50, TNFα (IMG microglial cells, LPS, ELISA) [6]: 36.8 µg/mL
- EC50, NFκB (reduction of NFκB activation, SEAP reporter cells, LPS) [7]: 5.05 µg/mL

Molecule: RRRFVFLD (not fully specified; cyclic (HN- at the N-terminus (so in the source))) [SERPIN peptide derivative A2-4, HN-RRRFVFLD (cyclic)]
- EC50, IL-6 (IMG microglial cells, LPS, ELISA) [6]: 11.3 µg/mL
- EC50, TNFα (IMG microglial cells, LPS, ELISA) [6]: 12.5 µg/mL
- EC50, NFκB (reduction of NFκB activation, SEAP reporter cells, LPS) [7]: 5.25 µg/mL

B2: SERPIN peptide derivative A2-5, HN-RRRFVFL[dS]D (cyclic) (peptide)
peptide: RRRFVFLSD
modifications: not fully specified; D-Ser at position 8; cyclic (HN- at the N-terminus (so in the source))
- EC50, IL-6 (IMG microglial cells, LPS, ELISA) [6]: 1.4 µg/mL
- EC50, TNFα (IMG microglial cells, LPS, ELISA) [6]: 2.39 µg/mL
- EC50, NFκB (reduction of NFκB activation, SEAP reporter cells, LPS) [7]: 1.47 µg/mL

Molecule: Ac-RRRKFT[Nal]LD (lactam 4-9) [SERPIN peptide derivative A3-7, Ac-RRRKFT[Nal]LD (cyclic)]
- EC50, IL-6 (IMG microglial cells, LPS, ELISA) [6]: 3.65 µg/mL
- EC50, NFκB (reduction of NFκB activation, SEAP reporter cells, LPS) [7]: 22.4 µg/mL

B3: SERPIN peptide derivative A3-10, HN-RRRFVFL[dDap]D (cyclic) (peptide)
peptide: RRRFVFLXD
modifications: not fully specified; D-Dap at position 8; cyclic (HN- at the N-terminus (so in the source))
- EC50, IL-6 (IMG microglial cells, LPS, ELISA) [6]: 58.5 µg/mL
- EC50, TNFα (IMG microglial cells, LPS, ELISA) [6]: 34.6 µg/mL
- EC50, NFκB (reduction of NFκB activation, SEAP reporter cells, LPS) [7]: 2.16 µg/mL

B4: SERPIN peptide derivative A3-14, HN-RRRAT[Nal]L[Nle]D (cyclic) (peptide)
peptide: RRRAT[Nal]L[Nle]D
modifications: not fully specified (bridges); printed as HN- RRRAT[Nal]L[NIe]D (cyclic); also: cyclic, ring not given here
- EC50, IL-6 (IMG microglial cells, LPS, ELISA) [6]: 0.605 µg/mL
- EC50, TNFα (IMG microglial cells, LPS, ELISA) [6]: 6 µg/mL
- EC50, NFκB (reduction of NFκB activation, SEAP reporter cells, LPS) [7]: 3.77 µg/mL

Molecule: VKFNKPFVFLMIEQNTK [SERPIN peptide SP16 (VKFNKPFVFLMIEQNTK)]
- EC50, TNFα (IMG microglial cells, LPS, ELISA) [6]: ~618 µg/mL
- EC50, NFκB (reduction of NFκB activation, SEAP reporter cells, LPS) [7]: 152 µg/mL

Molecule: Ac-RRRCPFVFL[Nle]C (disulfide 4-11 (inferred)) [SERPIN peptide derivative SA7, Ac-RRRCPFVFL[Nle]C (cyclic)]
- IC50, protease TMPRSS2 activity in an overexpressing cell system [8]: 0.083 µg/mL
- EC50, IL-6 (IMG microglial cells, LPS, ELISA) [6]: 318 µg/mL
- EC50, TNFα (IMG microglial cells, LPS, ELISA) [6]: 124 µg/mL
- EC50, NFκB (reduction of NFκB activation, SEAP reporter cells, LPS) [7]: 470 µg/mL

Molecule: Ac-RRR[Dap]FT[Nal]L[Nle]D [SERPIN peptide derivative A2-1, Ac-RRR[Dap]FT[Nal]L[Nle]D (cyclic)]
- EC50, IL-6 (IMG microglial cells, LPS, ELISA) [6]: 9.64 µg/mL
- EC50, TNFα (IMG microglial cells, LPS, ELISA) [6]: 13 µg/mL
- EC50, NFκB (reduction of NFκB activation, SEAP reporter cells, LPS) [7]: 5.77 µg/mL

Molecule: RRRFVFLAD (not fully specified; cyclic (HN- at the N-terminus (so in the source))) [SERPIN peptide derivative A2-3, HN-RRRFVFLAD (cyclic)]
- EC50, IL-6 (IMG microglial cells, LPS, ELISA) [6]: 3.38 µg/mL
- EC50, TNFα (IMG microglial cells, LPS, ELISA) [6]: 11.8 µg/mL
- EC50, NFκB (reduction of NFκB activation, SEAP reporter cells, LPS) [7]: 2.65 µg/mL
